Test results as given in patent US12655413B2, “Fragmented GRS polypeptide and variant thereof, and use thereof” (CUREBIO THERAPEUTICS, priority 2018, dated 2026).
Residues, ends and D or L forms follow the SMILES beside them.

Experiments:
[1] = system: SN12C (CDH6 positive renal cancer cell); experiment: Comparison of in vitro cancer cell apoptotic activity among the polypeptides (FIG. 2); assay type: cell-based; conditions: 1 μg or 2 μg of polypeptide
Method: The polypeptide fragments were assayed for cancer cell apoptotic activity. Concrete experiment procedures were as follows: H460, HCT116, MCF7, HeLa, SN12C or RENCA cells were each seeded at a density 5,000 cells/mL into 96-well plates (Corning, New York, USA) and incubated for 24 hours with 100 nM of each of the polypeptide fragments and the full-length GRS protein. Then, each sample was treated for 2 hours with 10 μl of CCK8 reagent (Dojindo Molecular Technologies Inc. Kumamoto, Japan) before absorbance was read at 570 nm on a microplate reader (TECAN, Mannedorf, Swiss).
Comparison was made of cancer cell apoptotic activity among the polypeptide constructs of Examples 1-1 and 1-2. Each polypeptide was used in an amount of 1 μg or 2 μg, and the assay was performed in the same manner as in Example 1-1.

[2] = system: CDH6+/pERK+ cells (H460, HeLa, SN12C) or negative cells (RENCA, MCF7); experiment: CDH6-dependency: cell viability of CDH6/pERK positive or negative cells; assay type: cell-based; conditions: GRS-DP 100 nM (FIG. 5a legend: 200 nM); CDH6 positive vs negative cells
[3] = system: pERK in SN12C (CDH6 positive) cells or RENCA (CDH6 negative) cells; experiment: Dephosphorylation of pERK by western blotting; assay type: cell-based; conditions: 100 nM or 200 nM, 1 hour; SN12C vs RENCA; FIGS. 5b, 5c
Method: To examine whether the polypeptides of the present invention dephosphorylates pERK by binding to CDH6 or not, SN12C (CDH6 positive) cells or RENCA (CDH6 negative) cells were treated with the polypeptides of the present invention (typically, 100 nM or 200 nM of GRS-DP) and dephosphorylation of pERK was analyzed. In this regard, full-length GRS 100 nM was used as a positive control. In brief, the cells were […] for 1 hour with full-length GRS or GRS-DP, washed twice with chilled PBS, and lysed in a lysis buffer (150 mM NaCl, 2 mM EDTA, 1% Triton X-100, 1% sodium deoxycholate, 10 mM NaF, 1 mM orthovandadate, 10% glycerol, protease cocktail). Thirty micrograms of each protein were run on SDS/PAGE, followed by western blotting with an ERK antibody purchased from Cell Signaling Technology (Danvers, MA, USA) and an anti-cadherin-6 (K-cadherin) antibody purchased from Abcam (Cambridge, UK).

[4] = molecular target: T1, cadherin6 (CDH6)-fc fusion protein (Homo sapiens, UniProt P55285); experiment: Affinity for CDH6 by surface plasmon resonance (SPR); assay type: binding; conditions: CDH6 immobilized on carboxymethyl dextran chip
T1 construct: Fc
T1 sequence (P55285 with tags, fused parts or gaps limits assumed): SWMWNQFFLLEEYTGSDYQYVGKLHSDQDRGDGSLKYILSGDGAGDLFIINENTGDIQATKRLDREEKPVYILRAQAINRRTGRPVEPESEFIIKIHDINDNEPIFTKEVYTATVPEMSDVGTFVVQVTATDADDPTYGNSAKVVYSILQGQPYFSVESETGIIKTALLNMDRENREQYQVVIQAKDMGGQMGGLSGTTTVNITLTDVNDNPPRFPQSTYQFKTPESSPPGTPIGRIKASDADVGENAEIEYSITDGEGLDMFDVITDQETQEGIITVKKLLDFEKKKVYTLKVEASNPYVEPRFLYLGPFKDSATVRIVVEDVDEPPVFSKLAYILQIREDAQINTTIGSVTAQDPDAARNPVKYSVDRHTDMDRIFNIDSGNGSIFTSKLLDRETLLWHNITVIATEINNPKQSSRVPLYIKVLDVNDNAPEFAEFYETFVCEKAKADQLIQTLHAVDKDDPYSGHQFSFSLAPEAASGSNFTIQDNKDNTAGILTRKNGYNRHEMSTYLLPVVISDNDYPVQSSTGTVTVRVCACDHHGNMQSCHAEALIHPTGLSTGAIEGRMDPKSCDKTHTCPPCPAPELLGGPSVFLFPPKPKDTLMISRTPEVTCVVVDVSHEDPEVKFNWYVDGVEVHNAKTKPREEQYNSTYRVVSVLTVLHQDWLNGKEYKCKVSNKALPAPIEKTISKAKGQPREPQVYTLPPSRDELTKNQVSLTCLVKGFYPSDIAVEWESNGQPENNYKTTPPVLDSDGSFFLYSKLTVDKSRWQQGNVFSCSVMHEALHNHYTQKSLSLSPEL
Method: Comparison was made of the affinity of the peptides of the present invention for CDH6. The binding of GRS and GRS-derived peptides to cadherin6 (CDH6)-fc fusion protein was analyzed by surface plasmon resonance (SPR) using SR7500DC, Reichert Analytical Instrument (Depew NY). CDH6 was immobilized on a [CMDH chip]carboxymethyl dextran sensor chip via a free carboxyl group on the surface thereof, followed by injecting 0.1M 1-ethyl-3-(3-dimethylaminopropyl) carbodiimide hydrochloride and 0.05M N-hydroxysuccinimide at a flow speed of 5 μL/min to give an activated succinimide ester-modified surface. Various concentrations of GRS and GRS-derived peptides were injected at a flow speed of 30 μL/min into phosphate-based saline, after which a mobile-phase buffer was injected at the same flow speed to determine a dissociation rate. Data was analyzed using Software Scrubber 2.0 (Biological Software, Australia).

[5] = system: SN12C (CDH6 positive) cells; experiment: In vivo anticancer activity, intra-tumor injection, SN12C xenograft; design: species or system BALB/c nude mice; conditions: 20 μg into tumors on day 5 and 7; monitored 21 days; FIGS. 6b to 6d
Method: FIG. 6a is an experimental scheme for evaluating the ability of GRS, GRS-DP, and representative fragments derived therefrom (GRS-DP-B, or GRS-DP-A cyclic) to induce tumor regression in vivo by intra-tumor injection. Briefly, SN12C (CDH6 positive) cells were subcutaneously injected into BALB/c nude mice and then grown for 5 days to an average tumor size of 100 mm^3. On day 5 and 7, PBS or test materials were each injected at a dose of 20 μg into tumors (n=5 animals/group). Tumor volumes were calculated according to “maximum diameter×minimum diameter^2×0.52”.
Experimental procedures of an assay for in vivo anticancer activity are schematically represented in FIG. 6a. Briefly, 1×10^7 SN12C (CDH6 positive) cells were subcutaneously injected to the right flank of female BALB/c 8 weeks old (Dooyeol Biotech Co. Ltd, Seocho-gu, Seoul) and then grown for 5 days to an average tumor size of 100 mm^3. On day 5 and 7, PBS (control) or test materials (including a control) were each injected at a dose of 20 μg into tumors (n=5 animals/group). After monitoring the tumors for 21 days, the mice were sacrificed on day 21 and the tumors were excised. Tumor volumes were calculated according to “maximum diameter×minimum diameter^2×0.52”.

[6] = system: SN12C (CDH6 positive) cells; experiment: In vivo anticancer activity, intravenous injection, SN12C xenograft; design: species or system BALB/c nude mice; conditions: 5 MPK intravenously on day 5 and 7; monitored 21 days; FIGS. 7a to 7c
Description: FIG. 7a is an image of tumors excised from experimental animals in each test group sacrificed on day 21 after xenotransplantation of tumor cells, showing results of evaluating the ability of GRS, GRS-DP, and representative fragments derived therefrom (GRS-DP-B, or GRS-DP-A cyclic) to induce tumor regression in vivo by intravenous injection. Briefly, SN12C (CDH6 positive) cells were subcutaneously injected into BALB/c nude mice and then grown for 5 days to an average tumor size of 100 mm^3. On day 5 and 7, PBS or test materials were each intravenously injected at a dose of 5 MPK (n=5 animals/group). Tumor volumes were calculated according to “maximum diameter×minimum diameter^2×0.52”.
Experimental procedures of an assay for in vivo anticancer activity are schematically represented in FIG. 6a. Briefly, 1×10^7 SN12C (CDH6 positive) cells were subcutaneously injected to the right flank of female BALB/c 8 weeks old (Dooyeol Biotech Co. Ltd, Seocho-gu, Seoul) and then grown for 5 days to an average tumor size of 100 mm^3. On day 5 and 7, PBS (control) or test materials (including a control) were each intravenously injected at a dose of 5 MPK (n=5 animals/group). After monitoring the tumors for 21 days, the mice were sacrificed on day 21 and the tumors were excised. Tumor volumes were calculated according to “maximum diameter×minimum diameter^2×0.52”.

B16F10 cells = experiment: In vivo tumor targeting of Alexa fluor 488-labeled polypeptides, intravenous injection; design: species or system C57BL/6 mice; conditions: 1 mg/kg intravenously, tumors excised after 24 hours; compared to full-length GRS protein and GRS-DP; FIGS. 8a, 8b
Description: FIG. 8a is an image of tumors excised from test groups, showing comparison of abilities of GRS, GRS-DP, and representative fragments derived therefrom (GRS-DP-B or GRS-DP-A cyclic) to specifically target cancer cells in terms of fluorescence labeling intensity. In the experiment, B16F10 cells were subcutaneously injected into C57BL/6 mice and then grown for 14 days. On day 14, PBS or fluorescence-labeled test materials were each intravenously injected at a dose of 1 MPK, and tumors were excised 24 hours after injection.
Thus, the ability of GRS-DP-B to target tumors in practice was evaluated when it was administered in a systemic manner. For this, GRS-DP-B, GRS-DP-A cyclic, GRS-DP, and full-length GRS protein were assayed for tumor targeting ability in vivo. Briefly, B16F10 cells (5×10^6 cells) were subcutaneously injected into the right flank of each of C57BL/6 mice 8 weeks old. On day 14, full-length GRS and the polypeptides of the present invention, each labeled with Alexa fluor 488, were intravenously injected at a dose of 1 mg/kg mouse weight, and the tumors were excised after 24 hours. Fluorescent signals of tumors were measured using IVIS Lumina Series III (PerkinElmer, Massachusetts, USA) to analyze regions of interest (ROI)

Molecule	cancer cell apoptotic effect [1]	cell viability [2]	dephosphorylation of pERK [3]	Kd [4] [nM]	sizes (volumes) and weights of tumors [5]	sizes (volumes) and weights of tumors [6]	tumor-specific target ability (fluorescence ROI of excised tumors) (B16F10 cells)
MYTVFEHTFHVREGDEQRTFFSFPAVVAPFKCSVLPLSQNQEFMPFVKELSEALTRHGVSHKVDDSSGSI [GRS-DP]	remarkably	reduced the cell viability of CDH6-positive cells only	inducing the CDH6-dependent dephosphorylation of pERK	83.9			
CSCC[C@H](N)C(=O)N[C@@H](Cc1ccc(O)cc1)C(=O)N[C@H](C(=O)N[C@H](C(=O)N[C@@H](Cc1ccccc1)C(=O)N[C@@H](CCC(=O)O)C(=O)N[C@@H](Cc1c[nH]cn1)C(=O)N[C@H](C(=O)N[C@@H](Cc1ccccc1)C(=O)N[C@@H](Cc1c[nH]cn1)C(=O)N[C@H](C(=O)N[C@@H](CCCNC(=N)N)C(=O)N[C@@H](CCC(=O)O)C(=O)NCC(=O)N[C@@H](CC(=O)O)C(=O)N[C@@H](CCC(=O)O)C(=O)N[C@@H](CCC(N)=O)C(=O)N[C@@H](CCCNC(=N)N)C(=O)N[C@H](C(=O)N[C@@H](Cc1ccccc1)C(=O)N[C@@H](Cc1ccccc1)C(=O)N[C@@H](CO)C(=O)N[C@@H](Cc1ccccc1)C(=O)N1CCC[C@H]1C(=O)N[C@@H](C)C(=O)O)[C@@H](C)O)C(C)C)[C@@H](C)O)C(C)C)[C@@H](C)O [GRS-DP-A linear] (H-MYTVFEHTFHVREGDEQRTFFSFPA-OH; N-terminus and C-terminus assumed)	remarkably						
GRS-DP-C: truncated GRS fragment, positions 538-552 on SEQ ID NO: 1, 15 aa (SEQ ID NO: 12) (TFHVREGDEQRTFFS; GRS-DP-C (GRS 538-552))	not detected						
GRS-DP-B: truncated GRS fragment, positions 531-538 on SEQ ID NO: 1, 8 aa (SEQ ID NO: 2) (MYTVFEHT; GRS-DP-B(GRS 531-538))	remarkably				most remarkably reduced	most remarkably reduced	remarkably high tumor-specific target ability
